What follows are compounds tested against T1, human vasopressin V1b receptor (Homo sapiens, UniProt P47901) (assay: Vasopressin V1b receptor binding test). Conditions: membranes of CHO-K1 cells with human V1b receptor, displacement of 1.5 nM 3H-AVP; for compounds with more than one stereogenic center the diastereomer with greater affinity.
T1 construct: expressed in transfected cells; host or cells: CHO-K1 (cell line hV1b_3H2_CHO), membrane preparation
T1 sequence (P47901 1-424): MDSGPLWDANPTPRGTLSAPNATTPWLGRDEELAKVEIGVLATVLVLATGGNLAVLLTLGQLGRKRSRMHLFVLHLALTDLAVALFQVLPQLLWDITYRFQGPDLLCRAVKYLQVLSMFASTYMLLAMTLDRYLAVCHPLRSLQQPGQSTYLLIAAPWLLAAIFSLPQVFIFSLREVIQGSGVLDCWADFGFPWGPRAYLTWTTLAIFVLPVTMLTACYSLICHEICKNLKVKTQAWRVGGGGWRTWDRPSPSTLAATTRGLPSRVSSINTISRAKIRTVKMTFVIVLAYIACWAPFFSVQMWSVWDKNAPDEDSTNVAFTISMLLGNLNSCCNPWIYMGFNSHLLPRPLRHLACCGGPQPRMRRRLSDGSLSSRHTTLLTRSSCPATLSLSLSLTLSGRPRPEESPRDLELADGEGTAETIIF
Summary of the method: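 Radioligand displacement on membranes carrying human V1b receptor in 50 mM tris, 10 mM MgCl2, 0.1% BSA, pH 7.4, 2% DMSO final; 60 min at room temperature, nonspecific binding with 1 μM AVP. Free ligand removed by filtration, bound counted by liquid scintillation, Ki from nonlinear regression of triplicates.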
In the case of COc1ccc(S(=O)(=O)N2C(=O)C(c3ccc(CN4CCNCC4)cc3OC)(N3CCC[C@H]3c3ncco3)c3cc(Cl)c(F)cc32)cc1 (stereo partly drawn) [Example 211, 5-Chloro-6-fluoro-1-(4-methoxybenzenesulfonyl)-3-(2-methoxy-4-piperazin-1-ylmethylphenyl)-3-((S)-2-oxazol-2-yl-pyrrolidin-1-yl)-1,3-dihydroindol-2-one], the Ki is reported as < 10 nM. With COc1ccc(S(=O)(=O)N2C(=O)C(c3ccc(CN4CCN(CCO)CC4)cc3OC)(N3CCC[C@H]3c3ncco3)c3cc(Cl)c(F)cc32)cc1 (stereo partly drawn) [Example 212, 5-Chloro-6-fluoro-3-{4-[4-(2-hydroxyethyl)piperazin-1-ylmethyl]-2-methoxyphenyl}-1-(4-methoxybenzenesulfonyl)-3-((S)-2-oxazol-2-yl-pyrrolidin-1-yl)-1,3-dihydroindol-2-one] the Ki was < 10 nM. In the case of COc1ccc(S(=O)(=O)N2C(=O)C(c3cc(CN4CCCC4)ccc3OC)(N3C[C@H](OC(C)(C)C)C[C@H]3c3ncco3)c3cc(Cl)ccc32)cc1 (stereo partly drawn) [Example 213, 3-((2S,4R)-4-tert-butoxy-2-oxazol-2-yl-pyrrolidin-1-yl)-5-chloro-1-(4-methoxybenzenesulfonyl)-3-(2-methoxy-5-pyrrolidin-1-ylmethylphenyl)-1,3-dihydroindol-2-one], the Ki is reported as 10 to 100 nM. In the case of COc1ccc(S(=O)(=O)N2C(=O)C(c3cc(CN4CCN(C)CC4)ccc3OC)(N3C[C@H](OC(C)(C)C)C[C@H]3c3ncco3)c3cc(Cl)ccc32)cc1 (stereo partly drawn) [Example 214, 3-((2S,4R)-4-tert-butoxy-2-oxazol-2-yl-pyrrolidin-1-yl)-5-chloro-1-(4-methoxybenzenesulfonyl)-3-[2-methoxy-5-(4-methylpiperazin-1-ylmethyl)phenyl]-1,3-dihydroindol-2-one], the Ki is reported as < 10 nM. For COc1ccc(S(=O)(=O)N2C(=O)C(c3cc(CN4CCN(CCO)CC4)ccc3OC)(N3C[C@H](OC(C)(C)C)C[C@H]3c3ncco3)c3cc(Cl)ccc32)cc1 (stereo partly drawn) [Example 215, 5-Chloro-3-((2S,4R)-4-tert-butoxy-2-oxazol-2-yl-pyrrolidin-1-yl)-3-{5-[4-(2-hydroxyethyl)piperazin-1-ylmethyl]-2-methoxyphenyl}-1-(4-methoxybenzenesulfonyl)-1,3-dihydroindol-2-one], the Ki was 10 to 100 nM. CCNCc1ccc(OC)c(C2(N3CCC[C@H]3c3ncon3)C(=O)N(S(=O)(=O)c3ccc(OC)cc3)c3ccc(Cl)cc32)c1 (stereo partly drawn) [Example 216, 5-Chloro-3-(5-ethylaminomethyl-2-methoxyphenyl)-1-(4-methoxybenzenesulfonyl)-3-((S)-2-[1,2,4]oxadiazol-3-yl-pyrrolidin-1-yl)-1,3-dihydroindol-2-one] was tested, and the Ki was < 10 nM. For CNCc1ccc(C2(N3C[C@H](O)C[C@H]3c3ncco3)C(=O)N(S(=O)(=O)c3ccc(OC)cc3)c3ccc(Cl)cc32)c(OC)c1 (stereo partly drawn) [Example 217, 5-Chloro-3-((2S,4R)-4-hydroxy-2-oxazol-2-yl-pyrrolidin-1-yl)-1-(4-methoxybenzenesulfonyl)-3-(2-methoxy-4-methylaminomethylphenyl)-1,3-dihydroindol-2-one], the Ki was < 10 nM. COc1ccc(S(=O)(=O)N2C(=O)C(c3cc(CN(C)C)ccc3OC)(N3C[C@H](OC(C)(C)C)C[C@H]3c3ncco3)c3cc(Cl)ccc32)cc1 (stereo partly drawn) [Example 218, 3-((2S,4R)-4-tert-butoxy-2-oxazol-2-yl-pyrrolidin-1-yl)-5-chloro-3-(5-dimethylaminomethyl-2-methoxyphenyl)-1-(4-methoxybenzenesulfonyl)-1,3-dihydroindol-2-one] showed a Ki of 10 to 100 nM. For CCNCc1ccc(OC)c(C2(N3C[C@H](OC(C)(C)C)C[C@H]3c3ncco3)C(=O)N(S(=O)(=O)c3ccc(OC)cc3)c3ccc(Cl)cc32)c1 (stereo partly drawn) [Example 219, 3-((2S,4R)-4-tert-butoxy-2-oxazol-2-yl-pyrrolidin-1-yl)-5-chloro-3-(5-ethylaminomethyl-2-methoxyphenyl)-1-(4-methoxybenzenesulfonyl)-1,3-dihydroindol-2-one], the Ki was < 10 nM. Work on COc1ccc(S(=O)(=O)N2C(=O)C(c3cc(CN4CCOCC4)ccc3OC)(N3C[C@H](O)C[C@H]3c3ncco3)c3cc(C#N)ccc32)cc1 (stereo partly drawn) [Example 220, 5-Cyano-3-((2S,4R)-4-hydroxy-2-oxazol-2-yl-pyrrolidin-1-yl)-1-(4-methoxybenzenesulfonyl)-3-(2-methoxy-5-morpholin-4-ylmethylphenyl)-1,3-dihydroindol-2-one] yielded a Ki of 10 to 100 nM. With CCN1CCN(Cc2ccc(OC)c(C3(N4C[C@H](O)C[C@H]4c4ncco4)C(=O)N(S(=O)(=O)c4ccc(OC)cc4)c4ccc(C#N)cc43)c2)CC1 (stereo partly drawn) [Example 221, 5-Cyano-3-[5-(4-ethylpiperazin-1-ylmethyl)-2-methoxyphenyl]-3-((2S,4R)-4-hydroxy-2-oxazol-2-yl-pyrrolidin-1-yl)-1-(4-methoxybenzenesulfonyl)-2,3-dihydro-1H-indol-2-one] the Ki was < 10 nM. Compound COc1ccc(S(=O)(=O)N2C(=O)C(c3cc(CN4CCN(CCO)CC4)ccc3OC)(N3C[C@H](O)C[C@H]3c3ncco3)c3cc(C#N)ccc32)cc1 (stereo partly drawn) [Example 222, 5-Cyano-3-{5-[4-(2-hydroxyethyl)piperazin-1-ylmethyl]-2-methoxyphenyl}-3-((2S,4R)-4-hydroxy-2-oxazol-2-yl-pyrrolidin-1-yl)-1-(4-methoxybenzenesulfonyl)-2,3-dihydro-1H-indol-2-one] has a Ki of 10 to 100 nM. COc1ccc(S(=O)(=O)N2C(=O)C(c3cc(CN(C)C)ccc3OC)(N3C[C@H](OC)C[C@H]3c3ncco3)c3cc(Cl)ccc32)cc1 (stereo partly drawn) [Example 223, 5-Chloro-3-(5-dimethylaminomethyl-2-methoxyphenyl)-1-(4-methoxybenzenesulfonyl)-3-((2S,4R)-4-methoxy-2-oxazol-2-yl-pyrrolidin-1-yl)-1,3-dihydroindol-2-one] was tested, and the Ki was < 10 nM. For COc1ccc(S(=O)(=O)N2C(=O)C(c3cc(CN4CCN(C)CC4)ccc3OC)(N3C[C@H](OC)C[C@H]3c3ncco3)c3cc(Cl)ccc32)cc1 (stereo partly drawn) [Example 224, 5-Chloro-1-(4-methoxybenzenesulfonyl)-3-[2-methoxy-5-(4-methylpiperazin-1-ylmethyl)phenyl]-3-((2S,4R)-4-methoxy-2-oxazol-2-yl-pyrrolidin-1-yl)-1,3-dihydroindol-2-one], the Ki was < 10 nM. For COc1ccc(S(=O)(=O)N2C(=O)C(c3cc(CN4CCN(C)CC4)ccc3OC)(N3CCC[C@@]3(C)c3ncco3)c3cc(Cl)ccc32)cc1 (stereo partly drawn) [Example 225, 5-Chloro-1-(4-methoxybenzenesulfonyl)-3-[2-methoxy-5-(4-methylpiperazin-1-ylmethyl)phenyl]-3-((S)-2-methyl-2-oxazol-2-yl-pyrrolidin-1-yl)-1,3-dihydroindol-2-one], the Ki was 10 to 100 nM. With COc1ccc(S(=O)(=O)N2C(=O)C(c3cc(CN4CCN(CCO)CC4)ccc3OC)(N3CCC[C@@]3(C)c3ncco3)c3cc(Cl)ccc32)cc1 (stereo partly drawn) [Example 226, 5-Chloro-3-{5-[4-(2-hydroxyethyl)piperazin-1-ylmethyl]-2-methoxyphenyl}-1-(4-methoxybenzenesulfonyl)-3-((S)-2-methyl-2-oxazol-2-yl-pyrrolidin-1-yl)-1,3-dihydroindol-2-one] the Ki was < 10 nM. For CNCc1ccc(OC)c(C2(N3CCC[C@@]3(C)c3ncco3)C(=O)N(S(=O)(=O)c3ccc(OC)cc3)c3ccc(Cl)cc32)c1 (stereo partly drawn) [Example 227, 5-Chloro-1-(4-methoxybenzenesulfonyl)-3-(2-methoxy-5-methylaminomethylphenyl)-3-((S)-2-methyl-2-oxazol-2-yl-pyrrolidin-1-yl)-1,3-dihydroindol-2-one], the Ki was < 10 nM. In the case of COc1ccc(S(=O)(=O)N2C(=O)C(c3cc(CN4CCN(C)CC4)ccc3OC)(N3C[C@H](F)C[C@H]3c3ncco3)c3cc(C#N)ccc32)cc1 (stereo partly drawn) [Example 228, 5-Cyano-3-((2S,4R)-4-fluoro-2-oxazol-2-yl-pyrrolidin-1-yl)-1-(4-methoxybenzenesulfonyl)-3-[2-methoxy-5-(4-methylpiperazin-1-ylmethyl)phenyl]-1,3-dihydroindol-2-one], the Ki is reported as 10 to 100 nM. Work on COc1ccc(S(=O)(=O)N2C(=O)C(c3cc(CN4CCN(CCO)CC4)ccc3OC)(N3C[C@H](F)C[C@H]3c3ncco3)c3cc(C#N)ccc32)cc1 (stereo partly drawn) [Example 229, 5-Cyano-3-((2S,4R)-4-fluoro-2-oxazol-2-yl-pyrrolidin-1-yl)-3-{5-[4-(2-hydroxyethyl)piperazin-1-ylmethyl]-2-methoxyphenyl}-1-(4-methoxybenzenesulfonyl)-1,3-dihydroindol-2-one] yielded a Ki of 10 to 100 nM. For COc1ccc(S(=O)(=O)N2C(=O)C(c3cc(CN(C)C)ccc3OC)(N3C[C@H](F)C[C@H]3c3ncco3)c3cc(C#N)ccc32)cc1 (stereo partly drawn) [Example 230, 5-Cyano-3-(5-dimethylaminomethyl-2-methoxyphenyl)-3-((2S,4R)-4-fluoro-2-oxazol-2-yl-pyrrolidin-1-yl)-1-(4-methoxybenzenesulfonyl)-1,3-dihydroindol-2-one], the Ki was 10 to 100 nM. With CCNCc1ccc(OC)c(C2(N3CCC[C@@]3(C)c3ncco3)C(=O)N(S(=O)(=O)c3ccc(OC)cc3)c3ccc(Cl)cc32)c1 (stereo partly drawn) [Example 231, 5-Chloro-3-(5-ethylaminomethyl-2-methoxyphenyl)-1-(4-methoxybenzenesulfonyl)-3-((S)-2-methyl-2-oxazol-2-yl-pyrrolidin-1-yl)-1,3-dihydroindol-2-one] the Ki was < 10 nM.
